Results on seven compounds are retold here after PMC6199744, “Development of Chemical Proteomics for the Folateome and Analysis of the Kinetoplastid Folateome” (ACS Infectious Diseases, 2018).

Holding throughout (format): binding
The target of experiment [1] is T1, HeLa cell extract proteins (Homo sapiens, UniProt P50748).
T1 construct: endogenous in cells; host or cells: HeLa cell extract
The note with it: HeLa; protein KNTC1.

Experiment [2] has as its target T2, HeLa cell extract proteins (Homo sapiens, UniProt O95347).
T2 construct: endogenous in cells; host or cells: HeLa cell extract
The conditions noted are these: protein SMC2; HeLa.

For experiment [3], the target named is T3, HeLa cell extract proteins (Homo sapiens, UniProt O95433).
T3 construct: endogenous in cells; host or cells: HeLa cell extract
The note with it: protein AHSA1; HeLa.

Experiment [4] addresses T4, HeLa cell extract proteins (Homo sapiens, UniProt P60953).
T4 construct: endogenous in cells; host or cells: HeLa cell extract
The conditions noted are these: protein CDC42; HeLa.

Experiment [5] addresses T5, HeLa cell extract proteins (Homo sapiens, UniProt O60232).
T5 construct: endogenous in cells; host or cells: HeLa cell extract
T5 sequence (O60232 1-199): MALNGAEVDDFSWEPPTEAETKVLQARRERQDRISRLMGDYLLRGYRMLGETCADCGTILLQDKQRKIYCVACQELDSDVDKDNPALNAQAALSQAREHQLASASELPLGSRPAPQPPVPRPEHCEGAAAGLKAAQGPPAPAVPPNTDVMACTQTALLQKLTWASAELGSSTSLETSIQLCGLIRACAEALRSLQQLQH

For experiment [6], the target named is T6, HeLa cell extract proteins (Homo sapiens, UniProt P13797).
T6 construct: endogenous in cells; host or cells: HeLa cell extract
T6 sequence (P13797 1-630): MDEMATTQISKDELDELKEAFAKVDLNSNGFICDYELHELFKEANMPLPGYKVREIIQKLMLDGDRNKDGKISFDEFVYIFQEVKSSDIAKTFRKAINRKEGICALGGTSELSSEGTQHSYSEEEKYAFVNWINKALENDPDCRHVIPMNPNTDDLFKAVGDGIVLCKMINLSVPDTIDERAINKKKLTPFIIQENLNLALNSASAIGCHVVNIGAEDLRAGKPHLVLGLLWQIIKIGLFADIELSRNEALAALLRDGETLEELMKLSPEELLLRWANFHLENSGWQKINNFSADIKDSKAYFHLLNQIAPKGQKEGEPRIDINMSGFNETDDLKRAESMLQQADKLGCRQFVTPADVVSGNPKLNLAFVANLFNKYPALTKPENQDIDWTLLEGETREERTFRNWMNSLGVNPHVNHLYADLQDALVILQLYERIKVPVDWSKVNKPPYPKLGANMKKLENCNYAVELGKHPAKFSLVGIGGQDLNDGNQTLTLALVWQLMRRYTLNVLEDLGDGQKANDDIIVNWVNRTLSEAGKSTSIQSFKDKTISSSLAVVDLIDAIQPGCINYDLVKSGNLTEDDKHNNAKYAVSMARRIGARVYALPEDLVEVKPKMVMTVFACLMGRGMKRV

Experiment [7] addresses T7, HeLa cell extract proteins (Homo sapiens, UniProt Q9UPN7).
T7 construct: endogenous in cells; host or cells: HeLa cell extract
T7 sequence (Q9UPN7 1-881): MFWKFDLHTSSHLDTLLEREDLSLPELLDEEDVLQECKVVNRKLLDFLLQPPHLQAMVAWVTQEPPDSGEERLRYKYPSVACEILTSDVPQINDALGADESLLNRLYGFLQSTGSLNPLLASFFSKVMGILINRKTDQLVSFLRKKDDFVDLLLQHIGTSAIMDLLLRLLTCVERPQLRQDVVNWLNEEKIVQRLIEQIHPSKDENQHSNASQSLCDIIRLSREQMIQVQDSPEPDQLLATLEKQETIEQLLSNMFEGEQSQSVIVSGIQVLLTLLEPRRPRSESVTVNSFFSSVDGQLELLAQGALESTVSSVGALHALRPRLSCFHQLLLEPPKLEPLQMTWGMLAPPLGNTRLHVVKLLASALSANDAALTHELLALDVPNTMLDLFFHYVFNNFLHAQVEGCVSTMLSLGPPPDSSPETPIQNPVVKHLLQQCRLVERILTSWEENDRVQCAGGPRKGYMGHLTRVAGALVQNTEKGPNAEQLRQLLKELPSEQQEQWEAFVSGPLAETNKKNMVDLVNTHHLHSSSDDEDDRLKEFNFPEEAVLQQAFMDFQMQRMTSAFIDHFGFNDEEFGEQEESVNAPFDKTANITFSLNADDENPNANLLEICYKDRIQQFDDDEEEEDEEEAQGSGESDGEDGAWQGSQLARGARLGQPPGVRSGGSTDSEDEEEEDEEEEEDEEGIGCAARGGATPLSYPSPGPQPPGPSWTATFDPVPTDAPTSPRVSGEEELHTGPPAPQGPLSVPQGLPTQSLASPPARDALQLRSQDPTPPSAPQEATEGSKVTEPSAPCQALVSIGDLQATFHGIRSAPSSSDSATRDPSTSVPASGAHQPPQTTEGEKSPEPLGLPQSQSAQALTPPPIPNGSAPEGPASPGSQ

Experiment [8] deals with T8, HeLa cell extract proteins (Homo sapiens, UniProt Q9NYP7).
T8 construct: endogenous in cells; host or cells: HeLa cell extract
T8 sequence (Q9NYP7 1-299): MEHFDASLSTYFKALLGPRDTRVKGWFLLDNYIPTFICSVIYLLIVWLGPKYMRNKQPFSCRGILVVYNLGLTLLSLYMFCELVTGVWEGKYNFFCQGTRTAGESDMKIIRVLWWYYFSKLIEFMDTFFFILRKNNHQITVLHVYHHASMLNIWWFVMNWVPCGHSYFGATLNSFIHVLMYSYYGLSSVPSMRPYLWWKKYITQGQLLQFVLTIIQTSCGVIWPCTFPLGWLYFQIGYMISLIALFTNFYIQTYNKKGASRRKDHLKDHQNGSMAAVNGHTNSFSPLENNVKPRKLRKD

In experiment [9] the target is T9, HeLa cell extract proteins (Homo sapiens, UniProt P14174).
T9 construct: endogenous in cells; host or cells: HeLa cell extract
T9 sequence (P14174 1-115): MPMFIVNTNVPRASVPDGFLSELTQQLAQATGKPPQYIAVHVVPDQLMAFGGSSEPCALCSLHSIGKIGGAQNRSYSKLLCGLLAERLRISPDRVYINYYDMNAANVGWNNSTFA

The mark [10] stands for this setting: HeLa, protein SAPS1 (SAPS1 PROTEIN).
[11] abbreviates: HeLa, protein LOC284889 (MACROPHAGE MIGRATION INHIBITORY FACTOR).

Like-named read-outs stand apart in the source and are kept apart here.

T2 sequence (O95347 whole entry): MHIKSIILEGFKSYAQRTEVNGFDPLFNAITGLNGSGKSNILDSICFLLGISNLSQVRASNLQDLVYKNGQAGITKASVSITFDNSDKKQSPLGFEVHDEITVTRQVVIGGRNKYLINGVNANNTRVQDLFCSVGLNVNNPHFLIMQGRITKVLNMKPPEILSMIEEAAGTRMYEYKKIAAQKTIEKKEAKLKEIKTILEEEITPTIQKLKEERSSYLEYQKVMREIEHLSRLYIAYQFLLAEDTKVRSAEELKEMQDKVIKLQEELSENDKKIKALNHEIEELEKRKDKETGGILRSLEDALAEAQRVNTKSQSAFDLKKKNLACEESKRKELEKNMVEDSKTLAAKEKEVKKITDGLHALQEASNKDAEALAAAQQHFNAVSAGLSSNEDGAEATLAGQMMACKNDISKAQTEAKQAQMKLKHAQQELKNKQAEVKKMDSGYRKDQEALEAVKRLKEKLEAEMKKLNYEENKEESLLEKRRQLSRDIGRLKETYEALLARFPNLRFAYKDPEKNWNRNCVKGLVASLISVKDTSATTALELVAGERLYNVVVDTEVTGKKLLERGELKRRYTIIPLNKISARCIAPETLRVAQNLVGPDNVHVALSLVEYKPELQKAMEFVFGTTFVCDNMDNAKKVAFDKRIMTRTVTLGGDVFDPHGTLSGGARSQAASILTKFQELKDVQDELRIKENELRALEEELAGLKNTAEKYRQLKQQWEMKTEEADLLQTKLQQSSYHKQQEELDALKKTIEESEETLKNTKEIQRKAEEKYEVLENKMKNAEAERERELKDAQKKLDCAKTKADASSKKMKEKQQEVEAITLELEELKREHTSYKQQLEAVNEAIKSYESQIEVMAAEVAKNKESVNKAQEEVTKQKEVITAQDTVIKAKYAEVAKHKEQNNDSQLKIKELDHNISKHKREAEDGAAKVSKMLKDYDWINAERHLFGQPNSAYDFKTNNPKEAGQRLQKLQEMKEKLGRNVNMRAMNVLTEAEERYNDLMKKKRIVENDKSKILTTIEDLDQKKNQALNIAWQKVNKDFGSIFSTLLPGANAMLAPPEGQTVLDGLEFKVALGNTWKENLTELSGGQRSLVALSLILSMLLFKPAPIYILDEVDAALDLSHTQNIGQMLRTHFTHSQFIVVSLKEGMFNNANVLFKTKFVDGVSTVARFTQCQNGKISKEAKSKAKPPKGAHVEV
T4 sequence (P60953 whole entry): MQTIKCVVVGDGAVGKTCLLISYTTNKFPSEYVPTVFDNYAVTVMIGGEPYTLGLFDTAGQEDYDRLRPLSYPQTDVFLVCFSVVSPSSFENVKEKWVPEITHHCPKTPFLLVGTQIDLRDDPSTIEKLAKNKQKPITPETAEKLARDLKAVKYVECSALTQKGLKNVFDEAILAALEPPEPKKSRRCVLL
T1 sequence (P50748 whole entry): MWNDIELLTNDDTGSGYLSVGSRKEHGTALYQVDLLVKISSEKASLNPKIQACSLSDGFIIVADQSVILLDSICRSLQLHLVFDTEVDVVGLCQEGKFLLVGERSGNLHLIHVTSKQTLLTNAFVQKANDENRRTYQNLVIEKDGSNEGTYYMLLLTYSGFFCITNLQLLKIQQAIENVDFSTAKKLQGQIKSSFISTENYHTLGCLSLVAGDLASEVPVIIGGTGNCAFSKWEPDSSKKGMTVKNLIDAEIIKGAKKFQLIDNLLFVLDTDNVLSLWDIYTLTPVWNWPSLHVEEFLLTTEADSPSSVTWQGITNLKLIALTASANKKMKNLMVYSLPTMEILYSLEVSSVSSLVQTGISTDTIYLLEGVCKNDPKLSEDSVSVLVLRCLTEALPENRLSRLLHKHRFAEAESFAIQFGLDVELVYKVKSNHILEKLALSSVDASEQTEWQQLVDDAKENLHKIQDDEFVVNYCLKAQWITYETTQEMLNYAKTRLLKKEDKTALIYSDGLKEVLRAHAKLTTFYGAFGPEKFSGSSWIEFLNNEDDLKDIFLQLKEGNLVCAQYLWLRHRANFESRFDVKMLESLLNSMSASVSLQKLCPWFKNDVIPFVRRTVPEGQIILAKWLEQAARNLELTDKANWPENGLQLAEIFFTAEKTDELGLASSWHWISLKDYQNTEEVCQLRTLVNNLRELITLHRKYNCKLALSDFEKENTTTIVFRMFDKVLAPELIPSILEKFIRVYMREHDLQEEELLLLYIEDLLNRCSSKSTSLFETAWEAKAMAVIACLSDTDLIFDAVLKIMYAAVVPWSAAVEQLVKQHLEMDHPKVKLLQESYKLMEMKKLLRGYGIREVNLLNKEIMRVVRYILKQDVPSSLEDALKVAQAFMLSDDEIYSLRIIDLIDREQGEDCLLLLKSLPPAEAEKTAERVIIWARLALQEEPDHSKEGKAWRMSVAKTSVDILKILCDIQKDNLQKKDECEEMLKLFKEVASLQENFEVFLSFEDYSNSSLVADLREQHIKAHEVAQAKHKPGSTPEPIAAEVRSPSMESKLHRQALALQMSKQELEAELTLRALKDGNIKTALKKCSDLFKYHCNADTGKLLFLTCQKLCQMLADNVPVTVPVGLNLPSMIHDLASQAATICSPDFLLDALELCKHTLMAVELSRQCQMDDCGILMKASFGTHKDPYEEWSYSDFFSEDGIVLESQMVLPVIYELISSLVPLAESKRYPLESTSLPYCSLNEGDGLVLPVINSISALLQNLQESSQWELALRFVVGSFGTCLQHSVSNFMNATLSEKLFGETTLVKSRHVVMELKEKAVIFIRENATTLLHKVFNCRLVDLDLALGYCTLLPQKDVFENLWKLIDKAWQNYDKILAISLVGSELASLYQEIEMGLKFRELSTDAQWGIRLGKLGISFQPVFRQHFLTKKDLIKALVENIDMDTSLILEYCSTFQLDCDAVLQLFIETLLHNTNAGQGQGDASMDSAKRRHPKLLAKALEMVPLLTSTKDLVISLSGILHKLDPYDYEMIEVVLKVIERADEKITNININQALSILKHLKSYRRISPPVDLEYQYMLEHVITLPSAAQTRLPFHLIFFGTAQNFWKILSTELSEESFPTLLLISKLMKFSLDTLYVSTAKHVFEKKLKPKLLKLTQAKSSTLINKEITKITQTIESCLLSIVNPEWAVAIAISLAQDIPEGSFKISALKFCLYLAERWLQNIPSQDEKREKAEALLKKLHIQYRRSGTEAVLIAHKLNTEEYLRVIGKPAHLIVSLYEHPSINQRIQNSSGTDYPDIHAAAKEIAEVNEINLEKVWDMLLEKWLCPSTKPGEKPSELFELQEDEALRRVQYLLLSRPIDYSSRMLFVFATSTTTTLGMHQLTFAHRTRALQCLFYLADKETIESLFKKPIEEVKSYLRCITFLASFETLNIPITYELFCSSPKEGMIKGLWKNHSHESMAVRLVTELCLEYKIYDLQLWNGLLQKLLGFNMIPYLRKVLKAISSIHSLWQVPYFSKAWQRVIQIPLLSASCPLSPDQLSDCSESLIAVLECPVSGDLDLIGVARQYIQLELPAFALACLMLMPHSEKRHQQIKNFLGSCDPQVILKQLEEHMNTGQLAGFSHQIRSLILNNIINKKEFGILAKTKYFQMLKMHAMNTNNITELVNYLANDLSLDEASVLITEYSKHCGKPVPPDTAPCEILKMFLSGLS
T3 sequence (O95433 whole entry): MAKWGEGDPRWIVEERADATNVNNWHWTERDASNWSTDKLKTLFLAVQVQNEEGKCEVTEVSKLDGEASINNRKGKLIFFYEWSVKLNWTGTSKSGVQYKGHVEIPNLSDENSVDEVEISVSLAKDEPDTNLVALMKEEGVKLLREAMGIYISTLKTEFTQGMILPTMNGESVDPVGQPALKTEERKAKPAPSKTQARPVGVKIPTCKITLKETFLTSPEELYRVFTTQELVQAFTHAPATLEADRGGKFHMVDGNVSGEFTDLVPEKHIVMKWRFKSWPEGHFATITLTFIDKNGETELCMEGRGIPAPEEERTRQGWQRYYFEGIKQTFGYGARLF

With `CCCCCCOc1cccc(Cc2cnc(N)nc2N)c1` [compound 2], the “fold changes relative to vehicle control” value in experiment [1] is listed as 1.13; in [2], 1.36; in [3], 1.63; in experiment [4] it was 1.45.

Regarding `NCCOCCOCC(=O)Nc1nc2ncc(CNc3ccc(C(=O)NC(CCC(=O)O)C(=O)O)cc3)nc2c(=O)[nH]1` (centres unmarked) [compound 6], the “fold changes relative to vehicle control” value in experiment [5] (protein SSSCA1, HeLa) amounted to 1.13; in experiment [6] (HeLa, protein PLS3) it was 1.31; in experiment [7] (setting [10]), 1.29; in [8] (HeLa, protein ELOVL5), 0.98; in experiment [9] (setting [11]) it was 1.26.

Consider `CCCCCCOc1ccc(Cc2cnc(N)nc2N)cc1` [compound 1], for which the “fold changes relative to vehicle control” value in experiment [1] was 1.15; in experiment [2], 1.4; in experiment [3], 1.17; in experiment [4], 1.11.

On to `Nc1nc2c(c(=O)[nH]1)N(C=O)C(CNc1ccc(C(=O)N[C@@H](CCC(=O)O)C(=O)O)cc1)CN2` (some centres unmarked) [LEU, leucovorin], for which the “fold changes relative to vehicle control” value in experiment [5] (protein SSSCA1, HeLa) stood at 0.95; in experiment [6] (HeLa, protein PLS3) it was 0.93; in experiment [7] (setting [10]), 1.01; in experiment [8] (HeLa, protein ELOVL5), 0.95; in [9] (setting [11]), 1.32.

Take `NCCCNc1ccc(C(=O)NC(CCC(=O)O)C(=O)O)cc1` (centres unmarked) [compound 7]: the “fold changes relative to vehicle control” value was 1.07 in experiment [5] (protein SSSCA1, HeLa); 1 in [6] (HeLa, protein PLS3); 1.32 in experiment [7] (setting [10]); 1.02 in experiment [8] (HeLa, protein ELOVL5); 1.25 in experiment [9] (setting [11]).

As to `Nc1nc2[nH]cc(CCc3ccc(C(=O)N[C@@H](CCC(=O)O)C(=O)O)cc3)c2c(=O)[nH]1` [PTX, pemetrexed], the “fold changes relative to vehicle control” value in experiment [5] is listed as 0.94; in experiment [6], 1.18; in experiment [7], 1.49; in [8], 0.9; in [9], 1.29.

As to `Nc1nc2cccc(-c3ccccc3)c2n1Cc1ccc(Cl)c(Cl)c1` [compound 3], the “fold changes relative to vehicle control” value in experiment [1] was found to be 1.17; in experiment [2], 1.11; in experiment [3], 1.24; in [4] it was 0.99.
